Laboratory results reported in patent EP4717277A1, “USE OF DRUG CONJUGATE IN TREATING TUMOR DISEASE AND METHOD THEREFOR” (Sichuan Kelun-Biotech Biopharmaceutical Co., Ltd., priority 2023, dated 2024).

Columns and labels:
[1] = Toxicokinetic behavior of the conjugate and released toxin molecules after repeated intravenous dosing; type: in vivo, cynomolgus monkeys; conditions: after the last dosing with 50 mg/kg conjugate A
Method: The cynomolgus monkeys were divided into four groups according to different doses: control group, 25 mg/kg dose group, 50 mg/kg dose group and 75 mg/kg dose group, with 5 males and 5 females in each group. […] For the monkeys in each group, blood samples were collected before and immediately after, and 4 h, 24 h, 48 h, 96 h and 168 h after the first and last dosing (0-1 min after the end of dosing), 1 h before and immediately after the second and third dosing (0-1 min after the end of dosing), and 336 h after the last dosing.

[2] = Clinical trial, pharmacokinetic study of the dose-escalation cohort; type: in vivo, human; conditions: patients, first 4-week cycle
Method: Based on the patient's weight, a dose escalation design with five dose cohorts of 2, 4, 6, 9 and 12 mg/kg was employed, which were injected intravenously once every two weeks, every 28 days as a cycle, and were given every cycle until the disease progressed or an intolerable toxic reaction occurred. The toxicity of all planned dose groups and some intermediate dose groups was evaluated by BLRM. Based on the model analysis, the sponsor and the researcher jointly decided the decision of dose increase.

CC[C@@]1(O)C(=O)OCc2c1cc1n(c2=O)Cc2c-1nc1ccccc1c2CCN(C(C)C)S(C)(=O)=O [toxins]
exposure to the toxin molecules ([1]; female monkeys): 3850 ng·h/mL | exposure to the toxin molecules ([1]; male monkeys): 5860 ng·h/mL | plasma exposure of free payload (area under the curve (AUC)) relative to that of Conjugate A [2]: ~5% | plasma exposure of free payload (maximum plasma concentration (Cmax)) relative to that of Conjugate A [2]: approximately 6%
